We go through three compounds from patent publication US20260297037A1, “COMPOUND COMPRISING N-METHYLPIPERAZINE ETHANOL CARBAMATE STRUCTURE AND USE THEREOF” (KOREA INSTITUTE OF RADIOLOGICAL & MEDICAL SCIENCES, priority 2023, published 2026).

Common to all, as to assay type: in vivo, C57BL/6 mice
In assay [1] the test system is radiation-induced pulmonary fibrosis (RIPF). The assay is described as follows: Degree of inflammation and fibrosis, H&E and Masson's Trichrome staining, radiation-induced pulmonary fibrosis. The following applies: SBRT 90 Gy, nintedanib 60 mg/kg, oral, 2 weeks after radiation exposure, vs untreated. The procedure:
(§1) One hour before stereotactic body radiation therapy (SBRT; 90 Gy, 4 mm collimator), DCTP and nintedanib, an FDA-approved drug known to inhibit pulmonary fibrosis, were orally administered to seven-week-old male C57BL/6 mice. The degree of pulmonary fibrosis and the inhibitory effect on radiation-induced lung injury were observed two weeks after radiation exposure.
(§2) The DCTP drug was administered at a dose of 30 mg/kg, and nintedanib was administered once daily (o.d.) at a dose of 60 mg/kg.
In addition, to analyze the degree of inflammatory response and the degree of fibrosis two weeks after radiation exposure, H&E staining and Masson's Trichrome staining were performed, and the results are shown in FIG. 5.
(§3) One hour prior to stereotactic body radiation therapy (SBRT; 90 Gy, 4 mm collimator), PXDP and nintedanib, an FDA-approved drug known to inhibit pulmonary fibrosis, were orally administered to seven-week-old male C57BL/6 mice. The degree of pulmonary fibrosis and the inhibitory effect on radiation-induced lung injury were observed two weeks after radiation exposure.
(§4) The PXDP drug was administered at a dose of 100 mg/kg, and nintedanib was administered once daily (o.d.) at a dose of 60 mg/kg. To analyze the degree of inflammatory response and the degree of fibrosis 2 weeks after radiation exposure, H&E staining and Masson's Trichrome staining were performed, and the results are shown in FIG. 11.

The test system of assay [2] is idiopathic pulmonary fibrosis induced by bleomycin. Kind of assay: Inhibitory effect on idiopathic pulmonary fibrosis induced by bleomycin, Micro-CT imaging. The following applies: bleomycin 1.5 U/kg, nintedanib 60 mg/kg, oral once daily for two weeks from day 14, 4 weeks after bleomycin, vs untreated. Here is the method: (§5) Each drug was administered starting 14 days after the administration of bleomycin. The drug was orally administered at a dose of 20 mg/kg once daily for two weeks (a total of 13 administrations). The control drug, nintedanib, was administered at a dose of 60 mg/kg, and the co-administration group was orally administered nintedanib (60 mg/kg) together with DCTP (20 mg/kg) once daily for two weeks (a total of 13 administrations).
(§6) Each drug was administered starting 14 days after the administration of bleomycin. Nintedanib and PXDP were each orally administered at a dose of 60 mg/kg once daily for two weeks (a total of 13 administrations), and the group treated with the combination was orally administered nintedanib (60 mg/kg) together with PXDP (60 mg/kg) once daily for two weeks (a total of 13 administrations).

Assay [3] shares this test system. The assay is described as follows: Degree of inflammation and fibrosis, H&E and Masson's Trichrome staining, bleomycin-induced idiopathic pulmonary fibrosis. Particulars: bleomycin 1.5 U/kg, nintedanib 60 mg/kg, oral once daily for two weeks from day 14, vs untreated. The procedure:
as §5
The results of H&E and Masson's Trichrome staining performed to evaluate the degree of inflammation and fibrosis are shown in FIG. 3.
as §6
The results of H&E and Masson's Trichrome staining performed to evaluate the degree of inflammation and fibrosis are shown in FIG. 8.

For assay [4], the system named is radiation-induced pulmonary fibrosis (RIPF). Kind of assay: Inhibitory effect on radiation-induced pulmonary fibrosis, Micro-CT imaging. Particulars: SBRT 90 Gy, 2 weeks after radiation exposure; for degree of fibrosis by Micro-CT imaging: vs untreated. Here is the method:
as §1, §2, §3, §4

[5] abbreviates: Example 6, FIG. 11, PXDP 100 mg/kg.
[6] abbreviates: Example 5, FIG. 7, PXDP 60 mg/kg.
Setting [7] is: Example 5, FIG. 8, PXDP 60 mg/kg.
Where [8] appears, read: Example 6, FIG. 10, PXDP 100 mg/kg, nintedanib 60 mg/kg, oral.
Where [9] appears, read: Example 3, FIG. 5, DCTP 30 mg/kg.

In the case of `CN1CCN(CCOC(=O)N(Cc2ccc(C(F)(F)F)nc2)c2ccc(Cc3c[nH]c4ncc(Cl)cc34)cn2)CC1` [PXDP, 2-(4-methylpiperazin-1-yl)ethyl (5-((5-chloro-1H-pyrrolo[2,3-b]pyridin-3-yl)methyl)pyridin-2-yl)((6-(trifluoromethyl)pyridin-3-yl)methyl) carbamate], the “degree of inflammation and fibrosis by H&E and Masson's Trichrome staining” value (from here on “degree of inflammation and fibrosis”) in assay [1] (setting [5]) was “alleviation of fibrosis and inflammation in the lungs”; in assay [3] (setting [7]) it was “alleviation of pulmonary fibrosis and inflammation”. The “degree of fibrosis by Micro-CT imaging” value in assay [2] (setting [6]) and in assay [4] (setting [8]) was “reduction in the degree of fibrosis” in each case. Moreover, the “effect compared with nintedanib (Micro-CT imaging)” value in assay [4] (Example 6, FIG. 10, PXDP 100 mg/kg vs nintedanib 60 mg/kg, oral) was “superior to that of nintedanib”.
`COC(=O)c1ccc2c(c1)NC(=O)/C2=C(\Nc1ccc(N(C)C(=O)CN2CCN(C)CC2)cc1)c1ccccc1` [nintedanib]: the “degree of inflammation and fibrosis” value in assay [1] (setting [9]) is “reduction in fibrosis and inflammation in the lungs”; in assay [1] (setting [5]) it was “alleviation of fibrosis and inflammation in the lungs”; in assay [3] (Example 2, FIG. 3, DCTP 20 mg/kg), “alleviation of pulmonary fibrosis and inflammation”; in assay [3] (setting [7]) it was “alleviation of pulmonary fibrosis and inflammation”. In addition, the “degree of fibrosis by Micro-CT imaging” value is “reduction in the degree of fibrosis” in assay [2] (Example 2, FIG. 2, DCTP 20 mg/kg); “reduction in the degree of fibrosis” in assay [2] (setting [6]); “reduction in the degree of fibrosis” in assay [4] (Example 3, FIG. 4, nintedanib 60 mg/kg oral once daily); “reduction in the degree of fibrosis” in assay [4] (setting [8]).
Regarding `COc1cc2ncnc(N(C(=O)OCCN3CCN(C)CC3)c3ccc(F)c(Cl)c3)c2cc1NC(=O)/C=C/CN1CCCCC1` [DCTP, 2-(4-methylpiperazin-1-yl)ethyl (E)-(3-chloro-4-fluorophenyl) (7-methoxy-6-(4-(piperidin-1-yl)but-2-enamido)quinazolin-4-yl) carbamate], in assay [1] (setting [9]), the “degree of inflammation and fibrosis” value is “reduction in fibrosis and inflammation in the lungs”.
